Measurements from ChEMBL document CHEMBL4627256, “N-(3,5-Dichloro-4-(2,4,6-trichlorophenoxy)phenyl)benzenesulfonamide: A new dual-target inhibitor of mitochondrial complex II and complex III via structural simplification” (Bioorg Med Chem, 2020).
pIC50: −log10 of the molar value.

Key:
[1] = Inhibition of porcine succinate-cytochrome c reductase using succinate and cytochrome c as substrates by spectrophotometric based assay; design: species or system Sus scrofa
[2] = Inhibition of porcine cytochrome b-c1 complex using DBH2 and cytochrome c as substrates by spectrophotometric based assay; design: species or system Sus scrofa
Sus scrofa [3] = species on record: Sus scrofa; test: Inhibition of porcine succinate-ubiquinone oxidoreductase at 10 uM using succinate and 2,6-dichloroindophenol as substrates by spectrophotometric based assay relative to control
[4] = Inhibition of porcine succinate-ubiquinone oxidoreductase using succinate and 2,6-dichloroindophenol as substrates by spectrophotometric based assay; design: species or system Sus scrofa
Sus scrofa [5] = species on record: Sus scrofa; test: Inhibition of porcine heart succinate-cytochrome c reductase at 10 uM using succinate and cytochrome c as substrates by spectrophotometric based assay relative to control
Sus scrofa [6] = species on record: Sus scrofa; test: Inhibition of porcine cytochrome b-c1 complex at 10 uM using DBH2 and cytochrome c as substrates by spectrophotometric based assay relative to control

Row | Structure (SMILES) | pIC50 [1] | further results
1 | O=S(=O)(Nc1cc(Cl)c(Oc2c(Cl)cc(Cl)cc2Cl)c(Cl)c1)c1ccc(F)cc1 | 6.08 | 
2 | O=S(=O)(Nc1ccc(Oc2ccc(Cl)cc2Cl)c(Cl)c1)c1ccccc1 | 5.70 | 
3 | O=S(=O)(Nc1ccc(Oc2ccc(Cl)cc2Cl)c(Cl)c1)c1c(Cl)cc(Cl)cc1Cl | 5.88 | 
4 | CO/C=C(/C(=O)OC)c1ccccc1Oc1cc(Oc2ccccc2C#N)ncn1 [AZOXYSTROBIN] | 6.54 | pIC50 [2]: 6.28; inhibition (Sus scrofa [3]): 23%
5 | CN(C)S(=O)(=O)n1cnc(S(=O)(=O)Nc2cc(Cl)c(Oc3c(Cl)cc(Cl)cc3Cl)c(Cl)c2)n1 | 5.49 | pIC50 [2]: 4.45; pIC50 [4]: 6.30
6 | CC(C)(C)c1ccc(S(=O)(=O)Nc2cc(Cl)c(Oc3c(Cl)cc(Cl)cc3Cl)c(Cl)c2)cc1 | 6.00 | 
7 | O=S(=O)(Nc1ccc(Oc2ccc(Cl)cc2Cl)c(Cl)c1)c1ccc(Cl)cc1Cl | 5.89 | 
8 | O=S(=O)(Nc1ccc(Oc2ccc(Cl)cc2Cl)cc1)c1ccc(C(F)(F)F)cc1Cl | 5.86 | 
9 | O=S(=O)(Nc1cc(Cl)c(Oc2ccc(Cl)cc2Cl)c(Cl)c1)c1ccc(Cl)cc1Cl | 5.86 | 
10 | O=S(=O)(Nc1cc(Cl)c(Oc2c(Cl)cc(Cl)cc2Cl)c(Cl)c1)c1ccc(C(F)(F)F)cc1Cl | 5.97 | 
11 | O=S(=O)(Nc1cc(Cl)c(Oc2ncc(C(F)(F)F)cc2Cl)c(Cl)c1)c1ccccc1 | < 5.00 | inhibition (Sus scrofa [5]): 9%
12 | O=S(=O)(Nc1cc(Cl)c(Oc2c(Cl)cc(Cl)cc2Cl)c(Cl)c1)c1ccc(C(F)(F)F)cc1 | 6.28 | 
13 | O=S(=O)(Nc1ccc(Oc2ccc(Cl)cc2Cl)c(Cl)c1)c1ccc(C(F)(F)F)cc1Cl | 5.97 | 
14 | Cc1cc(C)c(Oc2c(C)cc(NS(=O)(=O)c3ccccc3)cc2C)c(C)c1 | < 5.00 | inhibition (Sus scrofa [5]): 3%
15 | O=S(=O)(Nc1ccc(Oc2ccccc2)cc1)c1ccccc1 | < 5.00 | inhibition (Sus scrofa [5]): 32%
16 | CC(C)CC(C)c1sccc1NC(=O)c1cn(C)nc1C(F)(F)F (centres undefined) [PENTHIOPYRAD] | 5.88 | inhibition (Sus scrofa [6]): < 10%; pIC50 [4]: 5.92
17 | O=S(=O)(Nc1cc(Cl)c(Oc2c(Cl)cc(Cl)cc2Cl)c(Cl)c1)c1ccc(Cl)cc1Cl | 5.99 | 
18 | Cc1ccccc1S(=O)(=O)Nc1cc(Cl)c(Oc2c(Cl)cc(Cl)cc2Cl)c(Cl)c1 | 6.10 | 
19 | Cc1cccc(S(=O)(=O)Nc2cc(Cl)c(Oc3c(Cl)cc(Cl)cc3Cl)c(Cl)c2)c1 | 6.42 | 

Row | Structure (SMILES) | pIC50 [1] | further results
20 | Cc1ccc(S(=O)(=O)Nc2cc(Cl)c(Oc3c(Cl)cc(Cl)cc3Cl)c(Cl)c2)cc1 | 5.78 | 
21 | O=S(=O)(Nc1ccc(Oc2ccc(Cl)cc2Cl)cc1)c1ccccc1 | 5.03 | 
22 | O=[N+]([O-])c1ccc(S(=O)(=O)Nc2cc(Cl)c(Oc3c(Cl)cc(Cl)cc3Cl)c(Cl)c2)cc1 | 5.80 | 
23 | O=S(=O)(Nc1cc(Cl)c(Oc2ccc(Cl)cc2Cl)c(Cl)c1)c1c(Cl)cc(Cl)cc1Cl | 5.95 | 
24 | O=S(=O)(Nc1cc(Cl)c(Oc2c(Cl)cc(Cl)cc2Cl)c(Cl)c1)c1ccc(Cl)cc1 | 6.20 | 
25 | O=S(=O)(Nc1cc(Cl)c(Oc2c(Cl)cc(Cl)cc2Cl)c(Cl)c1)c1c(Cl)cc(Cl)cc1Cl | 6.66 | 
26 | O=[N+]([O-])c1ccc(S(=O)(=O)Nc2cc(Cl)c(Oc3ccc(Cl)cc3Cl)c(Cl)c2)cc1 | 5.45 | 
27 | O=S(=O)(Nc1cc(Cl)c(Oc2ccc(Cl)cc2Cl)c(Cl)c1)c1ccc(C(F)(F)F)cc1Cl | 5.93 | 
28 | O=S(=O)(Nc1cc(Cl)c(Oc2c(Cl)cc(Cl)cc2Cl)c(Cl)c1)c1ccccc1 | 7.10 | pIC50 [2]: 5.51; pIC50 [4]: 6.29
29 | COc1ccc(S(=O)(=O)Nc2cc(Cl)c(Oc3c(Cl)cc(Cl)cc3Cl)c(Cl)c2)cc1 | 5.73 | 
30 | O=S(=O)(Nc1cc(Cl)c(Oc2ccc(Cl)cc2Cl)c(Cl)c1)c1ccccc1 | 5.96 | 
31 | O=S(=O)(Nc1ccc(Oc2ccc3ccccc3c2)c(Cl)c1)c1ccccc1 | < 5.00 | inhibition (Sus scrofa [5]): 47%
32 | O=[N+]([O-])c1ccc(S(=O)(=O)Nc2ccc(Oc3ccc(Cl)cc3Cl)c(Cl)c2)cc1 | 5.65 | 
33 | O=[N+]([O-])c1ccc(S(=O)(=O)Nc2ccc(Oc3ccc(Cl)cc3Cl)cc2)cc1 | 5.31 | 
34 | O=S(=O)(Nc1ccc(Oc2c(Cl)cc(Cl)cc2Cl)c(Cl)c1)c1ccccc1 | < 5.00 | inhibition (Sus scrofa [5]): 47%
35 | O=S(=O)(Nc1cc(Cl)c(Oc2ccc3ccccc3c2)c(Cl)c1)c1ccccc1 | < 5.00 | inhibition (Sus scrofa [5]): 48%
36 | O=S(=O)(Nc1cc(F)c(Oc2c(F)cc(F)cc2F)c(F)c1)c1ccccc1 | 5.19 | inhibition (Sus scrofa [6]): 40%; pIC50 [4]: 5.69
37 | O=S(=O)(Nc1ccc(Oc2ccc(Cl)cc2Cl)cc1)c1c(Cl)cc(Cl)cc1Cl | 5.83 | 
38 | O=S(=O)(Nc1ccc(Oc2ccc(Cl)cc2Cl)cc1)c1ccc(Cl)cc1Cl | 5.79 | 
